Earlier results as cited in patent US20220166043A1, “NEGATIVE ELECTRODE ELECTROLYTE SOLUTION FOR REDOX FLOW BATTERIES, AND REDOX FLOW BATTERY” (ARM Technologies Co., Ltd., priority 2019, published 2022).
Values joined by “and” are separate entries in the source; they are usually repeats but may differ in a detail not shown here. Equal entries are not always repeated. Where two headings read alike, the source gives them in different places.

Conditions: octanol-water partition coefficient of the negative electrode solvent

Compound	Negative electrode solvent LogP (Log POW)	Negative electrode solvent LogP (Log POW) (listed as PP13 TFSI)
1-methyl-1-propylpyrrolidinium bis(trifluoromethanesulfonyl)imide	4.82	4.8165
Cc1cnc(C)c(C)n1 [2,3,5-trimethylpyrazine]	1.402 and 1.40	–
c1ccc(COCCOCc2ccccc2)cc1 [EGDBE, ethylene glycol dibenzyl ether]	3.42	–
COC1CCCC1 [MCP, methoxycyclopentane]	1.575 and 1.58	–
